# Columns and labels:
# ASIC1a = biological target: T1, ASIC1a (Rattus norvegicus, UniProt P55926); assay: Competition of sevanol with FRRFa peptide on ASIC1a current (integral currents); type: cell-based
# T1 construct: expressed in transfected cells; host or cells: Xenopus laevis oocytes (cRNA injection)
# T1 sequence (P55926 1-526): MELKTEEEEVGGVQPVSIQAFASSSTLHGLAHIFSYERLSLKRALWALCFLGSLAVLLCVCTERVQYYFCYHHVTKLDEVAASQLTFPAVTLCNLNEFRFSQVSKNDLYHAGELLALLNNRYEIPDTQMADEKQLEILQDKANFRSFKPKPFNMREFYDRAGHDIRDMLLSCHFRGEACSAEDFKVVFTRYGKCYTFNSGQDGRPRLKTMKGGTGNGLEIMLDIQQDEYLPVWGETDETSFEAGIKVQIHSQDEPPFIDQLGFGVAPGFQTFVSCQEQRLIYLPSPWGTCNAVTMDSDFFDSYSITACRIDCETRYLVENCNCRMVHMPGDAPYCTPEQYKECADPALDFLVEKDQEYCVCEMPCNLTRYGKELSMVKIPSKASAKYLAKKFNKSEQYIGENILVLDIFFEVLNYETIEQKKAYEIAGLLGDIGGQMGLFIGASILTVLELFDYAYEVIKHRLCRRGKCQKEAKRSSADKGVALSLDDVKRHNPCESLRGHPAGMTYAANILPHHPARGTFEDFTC
# Description: It is known that RF-amide peptides produce a potentiating effect on ASIC1a by inhibiting the channel’s desensitization in the presence of protons (during acidic stimulation). […] Using molecular docking and site-directed mutagenesis, it has been shown that RF-amide peptides are most likely to bind to ASIC1a in the central vestibule of the chicken channel. […] The peptide worsened the effectiveness of the inhibitory action of sevanol on the channel by 1.5 times, and reduced the Hill coefficient (Figure 3). Thus, it can be assumed that the binding site of sevanol also lies in the region of the central vestibule.
# Oocytes were harvested from female frogs anaesthetized with tricaine methane sulfonate (MS222) (0.17% solution), and the surgery was performed in an ice bath to avoid heavy bleeding. Defolliculated stage IV and V cells were injected with 2.5 and 10 ng cRNA, synthesized from PCi plasmids containing the rat ASIC1a and rat ASIC3 isoforms, respectively, using the Nanoliter 2000 microinjection system (World Precision Instruments, USA). The injected oocytes were kept for 2–3 days at 17 to 19 °C, and then for up to 5 days at 15 °C in a ND96 medium containing (in mM) 96 NaCl, 2 KCl, 1.8 CaCl2, 1 MgCl2, and 5 HEPES titrated to pH 7.4 with NaOH supplemented with gentamycin (50 μg/mL). Two-electrode voltage clamp recordings were performed at a holding potential of −50 mV using a GeneClamp 500 amplifier (Axon Instruments), and the data were filtered at 20 Hz and digitized at 100 Hz by an AD converter L780 (LCard, Russia). Microelectrodes were filled with 3 M KCl. The conditioning bath solution was ND96; the pH was adjusted to 7.4. The activating test solution was constructed based on the ND-96 buffer, in which 5 mM HEPES was replaced with 10 mM MES and pH was adjusted to 5.5. A computer-controlled valve system was used to achieve a rapid solution exchange in the recording chamber. A four parameter logistic equation was used for the curve-fitting analysis: F(x) = ((a1 − a2)/(1 + (x/x0)n)) + a2, where x is the concentration of the compound; F(x) is the response value at a given concentration of the compound; a1 is the control response value (fixed at 100%); x0 is the IC50 value; n is the Hill coefficient (slope factor); and a2 is the response value at the maximal inhibition (% of control).
# Figure 3 Comparison of sevanol (s706) and the Phe-Arg-Arg-Phe-amide peptide (FRRFa) effects on the ASIC1a current. […] (B) Dose–response ASIC1a inhibitory curves for s706 alone (red line) and for s706 in the presence of 200 µM FRRFa (blue line), determined for integral currents. […]
# ICR male mice [1] = assay: Abdominal constriction test of visceral pain (acetic acid-induced writhing); type: in vivo
# Protocol: Specific pathogen-free outbred ICR male mice (6 to 8 weeks old, weighing 29 to 33 g) were obtained from the Animal Breeding Facility of the Branch of the Shemyakin-Ovchinnikov Institute of Bioorganic Chemistry of the Russian Academy of Sciences (Pushchino). The animals were acclimatized for 2 weeks before the experimental procedures, and were kept in two-corridor barrier rooms under a controlled environment: a temperature of 20 to 24 °C, a relative humidity of 30% to 60%, and a 12 h light cycle. The animals were housed in Type 3 standard polycarbonate cages (820 cm2) on bedding (LIGNOCEL BK 8/15, JRS, Germany), with ad libitum access to feed (SSNIFF V1534-300, Spezialdiaeten, GmbH) and filtered tap water. The mouse cages were also supplied with material for environmental enrichment, i.e., Mouse House (Techniplast, Italy). Sevanol or the vehicle was administered intravenously, intranasally and orally (30 min before testing).
# The mice were divided into separate groups, and sevanol or saline was administrated (30 min before testing) as described above. Acetic acid in saline (0.6%, 10 mL/kg) was injected intraperitoneally. The mice were moved into transparent glass cylinders, and the number of writhes was registered for 15 min.
# Figure 5 The analgesic and anti-inflammatory effects of sevanol following intravenous, intranasal and per os administration. The effect of sevanol on the acetic acid induced writhing (A–C) and on the mice withdrawal latency on a hot plate in the thermal hyperalgesia test after CFA injection (D–F) upon intravenous (A,D), intranasal (B,E) and oral (C,F) administration. […] The results are presented as the mean ± SD (n = 6–10). The p-values of the sevanol groups vs. the saline group are based on an analysis of variance and on Tukey’s test; * p < 0.05, ** p < 0.005, *** p < 0.001.
# ICR male mice [2] = assay: CFA-induced paw oedema; type: in vivo; settings: p.o. only, not i.v. or i.n., 2, 4, 8 and 24 h
# mice = test system: mice; design: method as in PMID 30545037; settings: parenteral, 0.01–10 mg/kg; cited from earlier work
# human ASIC3 channels = settings: natural sevanol; read-out: IC50, inhibition of human ASIC3 channels; cited from earlier work
compound,measurement,setting,value
O=C(O)CC(C(=O)O)C(OC(=O)C1=Cc2cc(O)c(O)cc2C(c2ccc(O)c(O)c2)C1C(=O)OC(C(=O)O)C(CC(=O)O)C(=O)O)C(=O)O (centres unmarked) [sevanol],worsening of effectiveness of inhibitory action on ASIC1a by FRRFa peptide,ASIC1a; 200 μM FRRFa vs alone,1.5 times
same,IC50,"ASIC1a; integral currents, pH 5.5, 15 s pre-incubation, n = 5, read-out: IC50, ASIC1a inhibition, s706 alone",254 ± 31.2 µM
same,"nH, ASIC1a inhibition in the presence of FRRFa","ASIC1a; integral currents, pH 5.5, + 0.2 mM (200 µM) FRRFa, n = 5",2.4 ± 0.3
same,"nH, ASIC1a inhibition, s706 alone","ASIC1a; integral currents, pH 5.5, n = 5",3.1 ± 0.4
same,"reduction of the number of writhes, i.n.","ICR male mice [1]; intranasal, 1 mg/kg",more than 50%
same,"dose producing statistically significant reduction of writhes, i.n.","ICR male mice [1]; intranasal, 30 min before acetic acid",higher than 0.1 mg/kg
same,"reduction of the number of writhes, i.v.","ICR male mice [1]; intravenous, 1 mg/kg",more than 50%
same,"dose producing statistically significant reduction of writhes, i.v.","ICR male mice [1]; intravenous, 30 min before acetic acid",higher than 0.1 mg/kg
same,"reduction of the number of writhes, p.o.","ICR male mice [1]; oral, 1 mg/kg",more than 50%
same,"dose from which effective in reducing writhes, p.o.","ICR male mice [1]; oral, 30 min before acetic acid",≥ 0.01 mg/kg
same,enhancement of analgesic and anti-inflammatory effect by oral administration versus other routes,"ICR male mice [1]; p.o. vs i.v./i.n., both tests",10 fold
same,paw oedema reduction,ICR male mice [2],significant reduction in paw oedema
same,effect on CFA-induced thermal hyperalgesia,mice,significantly reversed
same,IC50,human ASIC3 channels,300 µM
